Test results taken from ChEMBL document CHEMBL1687690, “Antiproliferative and differentiating activities of a novel series of histone deacetylase inhibitors” (ACS Med Chem Lett, 2010).
Active and inactive are the calls of the source. The rule behind the calls is not given here.

Tests used:
[1] = target: T1, Histone deacetylase (Homo sapiens) (UniProt Q13547+O15379+Q9UBN7+Q92769+Q9UQL6+Q8WUI4+Q9BY41+Q96DB2+P56524+Q9UKV0+Q969S8); experiment: Inhibition of HDAC activity in human NB4 cells assessed as maximum acetylation of histone H3 at EC50 concentration after 24 hrs by Western blot analysis relative to control; type: cell-based; details: NB-4
[2] = target: T1, Histone deacetylase (Homo sapiens); experiment: Inhibition of HDAC activity in human NB4 cells assessed as maximum acetylation of histone H4 at EC50 concentration after 24 hrs by Western blot analysis relative to control; type: cell-based; details: NB-4
NB-4 [3] = experiment: Antiproliferative activity against human NB4 cells after 24 hrs by alamar blue assay; type: functional, cell-based; details: NB-4, 24 h
Tubulin = experiment: Inhibition of HDAC activity in human NB4 cells assessed as acetylated tubulin after 24 hrs by Western blot analysis; type: cell-based; details: nb-4
Histone deacetylase [4] = experiment: Inhibition of HDAC activity in human NB4 cells assessed as acetylation of histone H3 after 24 hrs by Western blot analysis; type: cell-based; details: nb-4
HCT-116 [5] = experiment: Antiproliferative activity against human HCT116 cells after 24 hrs by alamar blue assay; type: functional, cell-based; details: HCT-116, 24 h
Histone deacetylase [6] = experiment: Inhibition of HDAC activity in human NB4 cells assessed as acetylation of histone H4 after 24 hrs by Western blot analysis; type: cell-based; details: nb-4
NB-4 [7] = experiment: Potentiation of all-trans retinoic acid-induced human NB4 cells differentiation after 72 hrs by NBT-reductase activity assay relative HDAC inhibitor alone; type: functional
[8] = target: T1, Histone deacetylase (Homo sapiens); experiment: Inhibition of HDAC activity in human NB4 cells assessed as maximum acetylated tubulin at EC50 concentration after 24 hrs by Western blot analysis relative to control; type: cell-based; details: NB-4
HCT-116 [9] = experiment: Antitumor activity against human HCT116 cells xenografted in athymic nude mouse assessed as decrease in tumor volume at 6.2 mg/kg, iv administered once daily for 5 days per week by caliper measurement; type: functional, organism-based; parameters: dose 6.2 mg/kg
HCT-116 [10] = experiment: Antitumor activity against human HCT116 cells xenografted in athymic nude mouse assessed as decrease in tumor volume at 12.5 mg/kg, iv administered once daily for 5 days per week by caliper measurement; type: functional, organism-based; parameters: dose 12.5 mg/kg
HCT-116 [11] = experiment: Antitumor activity against human HCT116 cells xenografted in athymic nude mouse assessed as decrease in tumor volume at 25 mg/kg, iv administered once daily for 5 days per week by caliper measurement; type: functional, organism-based; parameters: dose 25 mg/kg
[12] = Ratio of IC50 for HDAC2 to IC50 for HDAC6

Ratio [1] | Ratio [2] | EC50 (Tubulin) [nM] | EC50 (Histone deacetylase [4]) [nM] | IC50 (HCT-116 [5]) [nM] | EC50 (Histone deacetylase [6]) [nM] | Ratio [8] | Ratio IC50 [12] | Structure (SMILES) | IC50 (NB-4 [3]) [nM] | Ratio (NB-4 [7]) | inhibition (HCT-116 [9]) | inhibition (HCT-116 [10]) | inhibition (HCT-116 [11])
3 | 9 | 440 | 380 | 200 | 530 | 932 | – | O=C(CCCCCN1C(=O)c2ccccc2Oc2ccc(Cl)cc21)NO | 160 | 1 | – | – | –
188 | 126 | 1170 | 1300 | > 10000 | 1530 | 402 | – | O=C(CCCCCN1C(=O)c2ccccc2Nc2ccccc21)NO | 730 | 6 | – | – | –
200 | 2330 | 150 | 340 | 60 | 360 | 13200 | – | O=C(CCCCCN1C(=O)c2ccccc2Sc2ccc(Cl)cc21)NO | 30 | 31 | inactive | Active | –
12 | 28 | 130 | 190 | 90 | 150 | 47 | – | COc1ccc2c(c1)N(CCCCCC(=O)NO)C(=O)c1ccccc1S2 | 30 | 16 | – | – | Active
190 | 89 | 370 | 460 | 390 | 430 | 2000 | – | O=C(CCCCCN1C(=O)c2ccccc2Sc2ccccc21)NO | 190 | 5 | – | – | –
7 | 244 | 250 | 390 | 360 | 280 | 199 | – | COc1ccc2c(c1)N(CCCCCC(=O)NO)C(=O)c1ccccc1N2 | 140 | 1 | – | – | –
10 | 14 | 2740 | 2650 | 8100 | 2950 | 40 | – | CN1c2ccccc2C(=O)N(CCCCCC(=O)NO)c2ccccc21 | 2460 | 13 | – | – | –
2110 | 795 | 40 | 30 | 30 | 60 | 8850 | – | O=C(CCCCCN1C(=O)c2ccccc2S(=O)(=O)c2ccc(Cl)cc21)NO | 20 | 56 | – | – | –
4740 | 1460 | 50 | 30 | 40 | 90 | 30600 | – | COc1ccc2c(c1)N(CCCCCC(=O)NO)C(=O)c1ccccc1S2(=O)=O | 20 | 79 | – | – | –
31 | 78 | 320 | 840 | 450 | 860 | 413 | – | O=C(CCCCCN1C(=O)c2ccccc2Nc2ccc(Cl)cc21)NO | 290 | 1 | – | – | –
61 | 206 | 90 | 200 | 310 | 320 | 1780 | – | COc1ccc2c(c1)N(CCCCCC(=O)NO)C(=O)c1ccccc1O2 | 140 | 7 | – | – | –
15 | 54 | 290 | 6240 | 640 | 3270 | 2630 | 61 | O=C(CCCCCN1C(=O)c2ccccc2Oc2ccccc21)NO | 610 | 2 | – | – | –
342 | 336 | 50 | 500 | 150 | 720 | 10700 | 48 | O=C(CCCCCN1C(=O)c2ccccc2S(=O)(=O)c2ccccc21)NO | 120 | 14 | – | – | –
